Patent US11738088B2, “Boryl ethers, carbonates, and cyclic acetals as oxidatively-triggered drug delivery vehicles” (University of Pittsburgh—Of the Commonwealth System of …, priority 2016, dated 2023)

Tests used:
[1] = Oxidative breakdown with urea.H2O2 monitored by 1H NMR; type: physicochemical; details: for yield of released product (1H NMR vs internal standard) / half-life: 6-12 equiv H2O2.urea, pH 8.0, CD3CN:D2O 5:1, rt; for half-life: H2O2.urea (6-12 equiv) in CD3CN:D2O 5:1, read-out: t1/2 (substrate consumption); for oxidative breakdown / cargo release (in words): in the presence of H2O2
Protocol: The oxidative breakdown of compounds 7 and 8 was achieved by subjecting them (˜25 mM) to urea.H2O2 (300 mM) in a mixture of CD3CN and aqueous (D2O) buffer (pH=8.0). The buffer was selected to mimic the experimentally determined pH of mitochondria in consideration of potential applications to mitigating neuronal oxidative stress. Initial experiments were conducted in a 5:1 ratio of CD3CN and buffer (Scheme 3). Reaction progress was monitored by ^1H NMR through following the disappearance of the signals for diastereotopic hydrogens from the methylene group in the starting materials and the appearance of the corresponding enantiotopic hydrogens in butanone. Conversions were calculated by comparison to the internal standard 1,2-dimethoxyethane.

[2] = as above; type: physicochemical; details: urea.H2O2 300 mM
[3] = ~25 mM substrate, urea.H2O2 300 mM, CD3CN:buffer 5:1, pH 8.0

yield of released product (1H NMR vs internal standard) [1] [%]	half-life [1] [min]	oxidative breakdown / cargo release (in words) [1]	Structure (SMILES)	further results
			CCC(C)(OCOC)B1OC(C)(C)C(C)(C)O1 (centres unmarked) [Compound 7]	NMR yield of butanone ([1]; urea.H2O2 300 mM, CD3CN:buffer 5:1, pH 8.0): 79%; time for consumption of 50% of the starting material [1, 3]: less than 2 min; NMR yield of butanone ([2]; CD3CN:buffer 1:1): 84%; NMR yield of butanone ([2]; pH 7.2): 81%
			CCC(C)(OC(=O)Oc1ccccc1)B1OC(C)(C)C(C)(C)O1 (centres unmarked) [Compound 8]	yield of the desired products ([1]; urea.H2O2 300 mM, CD3CN:buffer 5:1): 84%; time for consumption of 50% of the starting material [1, 3]: 22 min; time for consumption of 50% of the starting material ([2]; CD3CN:buffer 1:1): ≤ 12 min; yield of the desired products ([2]; CD3CN:buffer 1:1): 84%
84	< 2	released smoothly	CCC(C)(OCOC1CCCCC1)B1OC(C)(C)C(C)(C)O1 (centres unmarked) [Compound 11]	
85	< 2	released smoothly	CCC(C)(OCO[C@@H]1C[C@H](C)CC[C@H]1C(C)C)B1OC(C)(C)C(C)(C)O1 (some centres unmarked) [Compound 13]	
89	< 2		CCC(C)(OCC(C)C)B1OC(C)(C)C(C)(C)O1 (centres unmarked) [Compound 17]	
83	< 2		CC(C)C(OC1CCCCC1)B1OC(C)(C)C(C)(C)O1 (centres unmarked) [Compound 19]	
16	> 936		CCC(C)(OC(=O)c1ccccc1)B1OC(C)(C)C(C)(C)O1 (centres unmarked) [Compound 22]	
			COc1ccc([C@H]2OCC[C@](C)(B3OC(C)(C)C(C)(C)O3)O2)cc1 [Compound 28]	time for consumption of 50% of the starting material ([1]; H2O2, pH 8.0): ≤ 1.5 min; time to complete conversion ([1]; H2O2, pH 8.0): < 15 min; yield of anisaldehyde and 1-hydroxy-3-butanone ([1]; H2O2, pH 8.0): 94%
		quickly and efficiently	CC1(B2OC(C)(C)C(C)(C)O2)CCOC(c2ccccc2)(c2ccccc2)O1 (centres unmarked) [Compound 29]	

Structure (SMILES)	yield of released product (1H NMR vs internal standard) [1] [%]	half-life [1] [min]	oxidative breakdown / cargo release (in words) [1]	further results
CCOC(C)(CCc1ccc(O[Si](C)(C)C(C)(C)C)cc1)B1OC(C)(C)C(C)(C)O1 (centres unmarked) [Compound 15]	89	< 2		
Cc1c(C)c2c(c(C)c1OC(=O)OC(C)(CCO[Si](C)(C)C(C)(C)C)B1OC(C)(C)C(C)(C)O1)CCC(C)(C)O2 (centres unmarked) [Compound 20]	79	90	somewhat slow	
